# Measurements published in PMC2954059 (Journal of medicinal chemistry, 2010).
# Like-named read-outs stand apart in the source and are kept apart here. Marks after values point to notes of the source that are not given here.
# What was measured:
# [1] = Concentrations of 1 in mouse serum and tissue samples by LC-MS/MS; assay type: in vivo, C57BL/6 mice
# [2] = assay type: in vivo, C57BL/6 mice; conditions: 24 mg/kg subcutaneous; for Concentration in the mouse brain: N = 3; for Concentration observed in brain, in molar terms: mouse brain, the quantified mouse (4a 8 h, 4d 2 h)
# [3] = target: T1, Calpain I from porcine erythrocytes (Sus scrofa, UniProt P35750); assay: Calpain I inhibition, fluorogenic Suc-Leu-Tyr-AMC assay, Ki by Dixon plots
# T1 sequence (P35750 1-714): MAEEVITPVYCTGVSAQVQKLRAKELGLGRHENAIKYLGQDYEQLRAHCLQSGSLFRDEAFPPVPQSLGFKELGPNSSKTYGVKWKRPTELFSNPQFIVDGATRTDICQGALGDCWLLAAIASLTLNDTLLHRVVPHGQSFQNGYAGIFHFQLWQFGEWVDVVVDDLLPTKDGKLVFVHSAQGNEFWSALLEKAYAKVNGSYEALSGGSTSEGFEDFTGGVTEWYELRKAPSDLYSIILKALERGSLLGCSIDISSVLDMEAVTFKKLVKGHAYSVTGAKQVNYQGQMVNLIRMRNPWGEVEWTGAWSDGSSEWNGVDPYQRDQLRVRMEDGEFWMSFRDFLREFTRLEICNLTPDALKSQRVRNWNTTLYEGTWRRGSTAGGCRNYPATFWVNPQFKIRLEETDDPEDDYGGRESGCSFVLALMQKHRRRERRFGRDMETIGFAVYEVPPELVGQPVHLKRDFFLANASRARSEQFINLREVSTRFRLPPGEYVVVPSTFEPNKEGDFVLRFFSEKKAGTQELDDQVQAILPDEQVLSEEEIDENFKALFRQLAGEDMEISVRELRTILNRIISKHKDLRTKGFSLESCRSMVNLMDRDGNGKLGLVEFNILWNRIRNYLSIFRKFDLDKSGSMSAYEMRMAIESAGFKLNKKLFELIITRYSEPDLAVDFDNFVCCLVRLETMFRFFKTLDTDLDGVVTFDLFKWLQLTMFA
# T1 sequence (P04574 1-266 partner): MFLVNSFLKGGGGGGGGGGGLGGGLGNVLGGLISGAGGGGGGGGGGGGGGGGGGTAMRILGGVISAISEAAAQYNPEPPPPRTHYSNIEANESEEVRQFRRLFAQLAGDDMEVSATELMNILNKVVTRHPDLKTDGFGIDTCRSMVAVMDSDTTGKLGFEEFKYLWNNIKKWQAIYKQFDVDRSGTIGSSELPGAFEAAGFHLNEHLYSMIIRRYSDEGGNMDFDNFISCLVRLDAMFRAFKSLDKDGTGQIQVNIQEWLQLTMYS
# [4] = target: T2, calpain II from porcine kidney (Sus scrofa, UniProt A6YNL5); assay: Calpain II inhibition, fluorogenic Suc-Leu-Tyr-AMC assay, Ki by Dixon plots; assay type: biochemical; conditions: selectivity calpain I over calpain II
# T2 sequence (A6YNL5 20-700): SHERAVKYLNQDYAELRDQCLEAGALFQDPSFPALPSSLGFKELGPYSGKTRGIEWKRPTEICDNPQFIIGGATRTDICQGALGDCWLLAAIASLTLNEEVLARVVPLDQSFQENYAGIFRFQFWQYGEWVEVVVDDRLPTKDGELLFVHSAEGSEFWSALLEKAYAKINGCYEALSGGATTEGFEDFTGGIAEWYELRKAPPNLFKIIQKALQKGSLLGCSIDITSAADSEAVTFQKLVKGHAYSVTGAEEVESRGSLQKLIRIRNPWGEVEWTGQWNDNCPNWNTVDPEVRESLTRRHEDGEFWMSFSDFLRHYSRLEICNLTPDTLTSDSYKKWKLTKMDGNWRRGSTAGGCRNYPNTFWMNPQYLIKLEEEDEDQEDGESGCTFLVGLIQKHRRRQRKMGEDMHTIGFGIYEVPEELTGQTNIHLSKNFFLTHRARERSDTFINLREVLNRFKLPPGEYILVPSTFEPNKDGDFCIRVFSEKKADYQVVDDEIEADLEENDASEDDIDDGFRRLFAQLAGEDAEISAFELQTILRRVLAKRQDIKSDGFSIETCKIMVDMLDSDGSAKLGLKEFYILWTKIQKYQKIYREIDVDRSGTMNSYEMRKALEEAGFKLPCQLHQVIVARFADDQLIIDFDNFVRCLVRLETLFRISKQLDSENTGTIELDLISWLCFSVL
# T2 sequence (P04574 1-266 partner): T1 sequence (P04574 1-266 partner)
# [5] = target: Cathepsin B from human liver (Homo sapiens, UniProt P07858); assay: Cathepsin B inhibition, fluorogenic Cbz-Arg-Arg-AMC assay, Ki by Dixon plots; assay type: biochemical
smiles,measurement,setting,value
"CCC(NC(=O)[C@H](CC(C)C)NC(=O)OCc1ccccc1)C(=O)C(=O)NCCCN1CCOCC1 (stereo partly drawn) [Compound 1, Cbz-Leu-D,L-Abu-CONH-(CH2)3-morpholine]",concentration at 1 h,"[1]; female, C57BL/6, mouse, liver, heart, kidney, spleen, other: subcutaneous or intravenous, 24 mg/kg",> 500 ng/g
same,Bioavailability via subcutaneous or oral administration,"[1]; mice, 24 mg/kg",good
same,Detection in the brain,"[1]; mice, 24 mg/kg subcutaneous, intravenous or oral",could not be detected
"CCC(NC(=O)[C@H](CC(C)C)NC(=O)OCc1ccccc1)C(=O)C(=O)NCCCn1cnc2c(N)ncnc21 (stereo partly drawn) [Compound 4a, 3-(Benzyloxycarbonyl-L-leucylamino)-N-(3-(6-amino-9H-purin-9-yl)propyl)-2-oxopentanamide]",Concentration in the mouse brain,"[2]; 8 hour, numeric value from one mouse, other two NQ",1.17 ± 0.01 ^b µg/g tissue
same,"Concentration observed in brain, in molar terms",[2],approximately 2 µM
CCC(NC(=O)[C@H](CC(C)C)NC(=O)OCc1ccccc1)C(=O)C(=O)NCCCn1ccc(N)nc1=O (stereo partly drawn) [Compound 4c],fold less potent than the adenine derivatives,[3],3- to 8 fold
"CCC(NC(=O)[C@H](CC(C)C)NC(=O)OCc1ccccc1)C(=O)C(=O)NCCCN1CCN(C)CC1 (stereo partly drawn) [Compound 4d, 3-(Benzyloxycarbonyl-L-leucylamino)-N-(3-(4-methylpiperazin-1-yl)propyl)-2-oxopentanamide]",Concentration in the mouse brain,[2]; 1 hour,could be detected
same,Concentration in the mouse brain,"[2]; 2 hour, numeric value from one mouse, other two NQ",1.14 ± 0.02 ^b µg/g tissue
same,"Concentration observed in brain, in molar terms",[2],approximately 2 µM
"COc1nc(N)c2ncn(CCCNC(=O)C(=O)C(Cc3ccccc3)NC(=O)[C@H](CC(C)C)NC(=O)OCc3ccccc3)c2n1 (stereo partly drawn) [Compound 5b, 3-(Benzyloxycarbonyl-L-leucylamino)-N-(3-(6-amino-2-methoxy-9H-purin-9-yl)propyl)-2-oxophenylbutanamide]",fold less potent on calpain II than on calpain I,[4],5 fold
CC(C)C[C@H](NC(=O)OCc1ccccc1)C(=O)NC(Cc1ccccc1)C(=O)C(=O)NCCCn1ccc(N)nc1=O (stereo partly drawn) [Compound 5c],fold less potent than the adenine derivatives,[3],3- to 8 fold
same,selectivity for calpain I and calpain II versus cathepsin B,[5],equally potent
"CC(C)C[C@H](NC(=O)OCc1ccccc1)C(=O)NC(Cc1ccccc1)C(=O)C(=O)NCCCN1CCN(C)CC1 (stereo partly drawn) [Compound 5d, 3-(Benzyloxycarbonyl-L-leucylamino)-N-(3-(4-methylpiperazin-1-yl)propyl)-2-oxophenylbutanamide]",selectivity for calpain I and calpain II versus cathepsin B,[5],good selectivity
"CC(C)C[C@H](NC(=O)OCc1ccccc1)C(=O)NC(Cc1ccccc1)C(=O)C(=O)NCCCN(C)C (stereo partly drawn) [Compound 5e, 3-(Benzyloxycarbonyl-L-leucylamino)-N-(3-(dimethylamino)propyl)-2-oxophenylbutanamide]",fold less potent on calpain II than on calpain I,[4],3 fold
same,selectivity for calpain I and calpain II versus cathepsin B,[5],good selectivity
